Where two headings read alike, the source gives them in different places.
Experiments:
[1] = target: human β1-adrenergic receptor (Homo sapiens, UniProt P08588); conditions: cited from earlier work
[2] = tested on: patients with HF and/or AF; test: Literature β-blocker trials and meta-analyses for AF prevention / recurrence; type: in vivo, human
[3] = tested on: advanced HFrEF patients (ADRB1 Arg389Gly / ADRA2C Ins322-325Del genotypes); test: BEST trial and DNA (pharmacogenetic) substudy: bucindolol vs. placebo; type: in vivo, human
From the text: The relationship of the ADRA2C Ins/Del polymorphism to systemic NE levels and clinical outcomes was investigated as part of the BEST trial AR polymorphism substudy.
Variables identified in the GENETIC-AF Statistical Analysis Plan (SAP) that were potential predictors of the primary endpoint were investigated by precision therapeutic phenotyping. Hypothesis-based (e.g., AF duration, AF type, LVEF, NYHA Class, NT-proBNP, norepinephrine) and hypothesis-free (e.g. HF duration, initial study dose) elements were included in the multivariate methodology, which was applied to both obvious and non-obvious data to identify a therapeutic phenotype appropriate for investigating in Phase 3. To examine the relationship between HF duration and bucindolol effectiveness for reducing HF events, we analyzed data from the BEST trial (14) and pharmacogenetic substudy (17) for the endpoint of time to all-cause mortality or first HF hospitalization (ACM/HFH).

[4] = target: T1, human β1-adrenergic receptor (Homo sapiens, UniProt P08588, G389R); test: Estimated β1-AR receptor occupancy from plasma concentration and KD; conditions: 12 weeks trough plasma concentration
T1 construct: from tissue; host or cells: notional myocardial receptor of GENETIC-AF patients; no receptor preparation was assayed
T1 sequence (P08588 whole entry G389R): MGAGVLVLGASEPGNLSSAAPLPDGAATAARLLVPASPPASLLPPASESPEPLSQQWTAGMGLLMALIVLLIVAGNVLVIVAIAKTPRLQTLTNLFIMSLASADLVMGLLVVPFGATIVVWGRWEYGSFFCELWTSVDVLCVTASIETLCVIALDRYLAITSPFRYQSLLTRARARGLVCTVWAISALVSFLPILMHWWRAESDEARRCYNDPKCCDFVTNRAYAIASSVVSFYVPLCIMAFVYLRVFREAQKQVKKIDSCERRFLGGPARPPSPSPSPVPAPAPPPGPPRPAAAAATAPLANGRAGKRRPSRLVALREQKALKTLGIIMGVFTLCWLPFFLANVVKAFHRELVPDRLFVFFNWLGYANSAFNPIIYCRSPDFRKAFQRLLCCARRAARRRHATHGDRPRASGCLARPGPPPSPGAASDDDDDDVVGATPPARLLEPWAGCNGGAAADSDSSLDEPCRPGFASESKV

[5] = tested on: advanced HFrEF patients (ADRB1 Arg389Gly / ADRA2C Ins322-325Del genotypes); conditions: cited from earlier work
[6] = clinical; conditions: human, in vivo
From the text: Based on FDA interactions and recommendations^63 the inventor sought to categorize CYP2D6 genetic variation in every patient in GENETIC-AF.
CYP2D6 polymorphisms were identified using the xTAG® CYP2D6 Kit v3 manufactured by Luminex Corporation, with the assay performed by Esoterix, Boulder, Colo. on DNA extracted from whole blood by LabCorp's subsidiary Covance, of Salt Lake City, Utah See Table 41 in the Appendix for identified polymorphisms.
Sparse sampling of bucindolol hydrochloride plasma concentrations for population pharmacokinetic analysis. The analysis plan for the substudy will be prepared separately prior to unblinding.

[7] = BEST ADRB1 389Gly Carriers n = 482
[8] = BEST ADRB1 Arg389Arg, free of AF at randomization
[9] = BEST ADRB1 Arg389Arg, free of AF at randomization, bucindolol vs placebo
[10] = BEST DNA substudy all genotypes n = 1040
[11] = BEST, {ADRA2C Del carrier and ADRB1 Arg389Arg}
[12] = BEST, {ADRA2C Del carriers and ADRB1 389Gly carriers}

human β1-adrenergic receptor (Homo sapiens, UniProt P08588), sequence (P08588 whole entry): as the sequence (P08588 whole entry G389R) above, with R389G counted along it

CC(C)(Cc1c[nH]c2ccccc12)NCC(O)COc1ccccc1C#N (stereo not drawn) [bucindolol, 2-(3-(1-(1H-indol-3-yl)-2-methylpropan-2-ylamino)-2-hydroxypropoxy)benzonitrile]
KD (KA in the occupancy formula), dissociation constant for human β1-ARs [1]: 3.6 nM
Predicted relative effect size in favor of bucindolol vs. metoprolol ([2]; RES = Ln HzR1/Ln HzR2, prevention of AF in HFrEF): 2.1 fold
Effect size in a direct comparison of bucindolol to metoprolol (estimated) ([2]; from relative effect size): 51%
Risk ratio in a direct comparison of bucindolol to metoprolol (estimated) ([2]; from relative effect size): 0.49
Events/patients (rate), time to AF/AFL/ACM [3, 7]: (26.8%)
Events/patients, time to AF/AFL/ACM [3, 7]: 61/228
Hazard Ratio (95% C.I.), time to AF/AFL/ACM ([3]; BEST ADRB1 389Gly Carriers, bucindolol vs placebo): 0.95
Events/patients (rate), time to AF/AFL/ACM ([3]; BEST ADRB1 Arg389Arg n = 435): (18.5%)
Events/patients, time to AF/AFL/ACM ([3]; BEST ADRB1 Arg389Arg n = 435): 43/232
ACM events [3, 8]: 33
ACM events/pt (%) [3, 8]: 14.0%
ACM/CVH events [3, 8]: 106
ACM/CVH events/pt (%) [3, 8]: 45.1%
ACM/HFH events [3, 8]: 82
ACM/HFH events/pt (%) [3, 8]: 34.9%
CVH events [3, 8]: 88
CVH events/pt (%) [3, 8]: 37.5%
CVM events [3, 8]: 25
CVM events/pt (%) [3, 8]: 10.6%
CVM/HFH events [3, 8]: 76
CVM/HFH events/pt (%) [3, 8]: 32.3%
HFH events [3, 8]: 65
HFH events/pt (%) [3, 8]: 27.7%
ACM HzR [3, 9]: 0.61
ACM/CVH HzR [3, 9]: 0.72
ACM/HFH HzR [3, 9]: 0.69
CVH HzR [3, 9]: 0.69
CVM HzR [3, 9]: 0.54
CVM/HFH HzR [3, 9]: 0.66
HFH HzR [3, 9]: 0.70
Hazard Ratio (95% C.I.), time to AF/AFL/ACM ([3]; BEST ADRB1 Arg389Arg, bucindolol vs placebo): 0.49
Events/patients (rate), time to AF/AFL/ACM [3, 10]: (22.6%)
Events/patients, time to AF/AFL/ACM [3, 10]: 104/460
Hazard Ratio (95% C.I.), time to AF/AFL/ACM ([3]; BEST DNA substudy all genotypes, bucindolol vs placebo): 0.70
Events/patients (rate), time to AF/AFL/ACM ([3]; BEST Entire Cohort n = 2708): (33.6%)
Events/patients, time to AF/AFL/ACM ([3]; BEST Entire Cohort n = 2708): 401/1193
Hazard Ratio (95% C.I.), time to AF/AFL/ACM ([3]; BEST Entire Cohort, bucindolol vs placebo): 0.80
β1-AR receptor occupancy ([4]; CYP2D6 EMs): 85.2%
β1-AR receptor occupancy ([4]; CYP2D6 IMs): 94.6%
β1-AR receptor occupancy ([4]; CYP2D6 PMs): 99.0%
Reduction in NE ([5]; BEST trial at 12 weeks): 75 pg/mL
Decrease in NE (sympatholysis) ([5]; BEST, ADRA2C Del genotypes): 153 pg/mL
Decrease in NE (sympatholysis) ([5]; BEST, ADRA2C Ins homozygotes): 50 pg/mL
Effect sizes, time to ACM or HF hospitalization and CV mortality or CV hospitalization ([5]; BEST, ADRB1 Arg389Arg subset in permanent AF): exceeding 70%
Reduction in the development (risk) of AF vs. placebo ([5]; BEST, ADRB1 Arg389Arg, sinus rhythm at baseline): 74%
Reduction in NE ([5]; BEST, {ADRA2C Del carrier and ADRB1 Arg389Arg} combination genotype): 120 pg/mL
Hazard ratio, ACM, bucindolol vs. placebo [5, 11]: 0.50
Hazard ratio, CVM, bucindolol vs. placebo [5, 11]: 0.40
Hazard ratio, heart failure hospitalization burden, bucindolol vs. placebo [5, 11]: 0.60
Hazard ratio, ACM, bucindolol vs. placebo [5, 12]: 1.04
Hazard ratio, CVM, bucindolol vs. placebo [5, 12]: 1.11
Hazard ratio, heart failure hospitalization burden, bucindolol vs. placebo [5, 12]: 1.19
Plasma concentration in PMs relative to IMs ([6]; 12 weeks): 5.7 fold
concentration at 12 weeks ([6]; Drug levels as measured in PMs): 200 to 500 nM

Reference: US10925856B2, “Methods and compositions involving bucindolol for the treatment of atrial fibrillation” (priority 2018, dated 2021)
